Experiments:
HDAC1 = molecular target: T1, HDAC1 (Homo sapiens, UniProt Q13547); assay: Inhibition of HDAC1 activity (HDAC1 fluorimetric drug discovery assay kit); format: biochemical; conditions: test concentrations 100, 1000 and 10000 nM; 37° C., 60 minutes
T1 construct: purchased Enzolifesciences BML-AK511
Experimental: (§1) Assays were performed using a HDAC1 fluorimetric drug discovery assay kit (Enzolifesciences: BML-AK511) and a HDAC6 human recombinant (Calbiochem: 382180). The assay mixture of the kit was treated with a test compound at concentrations of 100, 1000 and 10000 nM for HDAC1 assay and concentrations of 0.1, 1, 10, 100 and 1000 nM for HDAC6 assay. The treated assay mixture was allowed to react at 37° C. for 60 minutes, and then was treated with a developer and allowed to stand at 37° C. for 30 minutes, followed by quantification of the fluorescence.

HDAC6 human recombinant = molecular target: T2, HDAC6 human recombinant (Homo sapiens, UniProt Q9UBN7); assay: Inhibition of HDAC6 activity (fluorimetric assay); format: biochemical; conditions: test concentrations 0.1, 1, 10, 100 and 1000 nM; 37° C., 60 minutes
T2 construct: purchased Calbiochem 382180
T2 sequence (Q9UBN7 1-1215): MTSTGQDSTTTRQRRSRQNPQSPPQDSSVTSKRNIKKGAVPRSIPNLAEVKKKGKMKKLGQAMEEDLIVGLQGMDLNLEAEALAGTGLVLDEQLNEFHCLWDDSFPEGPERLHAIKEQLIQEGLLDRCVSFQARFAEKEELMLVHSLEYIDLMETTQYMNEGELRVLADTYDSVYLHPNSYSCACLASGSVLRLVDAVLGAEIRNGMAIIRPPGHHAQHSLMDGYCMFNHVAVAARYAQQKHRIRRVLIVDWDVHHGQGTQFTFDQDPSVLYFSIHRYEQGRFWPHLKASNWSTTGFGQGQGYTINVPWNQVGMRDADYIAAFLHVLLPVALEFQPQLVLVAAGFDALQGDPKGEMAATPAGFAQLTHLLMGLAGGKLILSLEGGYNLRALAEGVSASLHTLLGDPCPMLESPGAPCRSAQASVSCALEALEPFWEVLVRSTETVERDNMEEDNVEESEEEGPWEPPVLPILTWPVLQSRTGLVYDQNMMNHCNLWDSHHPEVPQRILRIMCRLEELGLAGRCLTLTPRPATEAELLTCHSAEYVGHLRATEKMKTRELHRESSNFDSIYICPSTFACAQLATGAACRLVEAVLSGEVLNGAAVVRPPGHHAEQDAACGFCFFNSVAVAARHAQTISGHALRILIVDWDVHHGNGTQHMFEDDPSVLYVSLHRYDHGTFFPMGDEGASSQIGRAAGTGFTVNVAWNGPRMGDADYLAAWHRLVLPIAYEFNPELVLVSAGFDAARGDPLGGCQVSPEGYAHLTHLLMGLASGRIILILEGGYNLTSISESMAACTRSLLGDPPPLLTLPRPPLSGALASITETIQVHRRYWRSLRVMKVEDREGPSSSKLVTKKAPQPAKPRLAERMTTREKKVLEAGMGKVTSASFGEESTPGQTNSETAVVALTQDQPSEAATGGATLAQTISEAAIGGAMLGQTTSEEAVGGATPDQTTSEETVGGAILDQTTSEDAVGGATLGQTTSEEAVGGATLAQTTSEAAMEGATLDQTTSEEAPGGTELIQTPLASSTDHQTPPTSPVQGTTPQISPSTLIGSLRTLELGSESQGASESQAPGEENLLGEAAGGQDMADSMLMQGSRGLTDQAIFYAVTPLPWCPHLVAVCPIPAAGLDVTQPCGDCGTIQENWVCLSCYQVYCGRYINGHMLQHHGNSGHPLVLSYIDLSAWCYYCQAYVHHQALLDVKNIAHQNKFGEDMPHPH
Experimental: as §1

T1 sequence (Q13547 whole entry): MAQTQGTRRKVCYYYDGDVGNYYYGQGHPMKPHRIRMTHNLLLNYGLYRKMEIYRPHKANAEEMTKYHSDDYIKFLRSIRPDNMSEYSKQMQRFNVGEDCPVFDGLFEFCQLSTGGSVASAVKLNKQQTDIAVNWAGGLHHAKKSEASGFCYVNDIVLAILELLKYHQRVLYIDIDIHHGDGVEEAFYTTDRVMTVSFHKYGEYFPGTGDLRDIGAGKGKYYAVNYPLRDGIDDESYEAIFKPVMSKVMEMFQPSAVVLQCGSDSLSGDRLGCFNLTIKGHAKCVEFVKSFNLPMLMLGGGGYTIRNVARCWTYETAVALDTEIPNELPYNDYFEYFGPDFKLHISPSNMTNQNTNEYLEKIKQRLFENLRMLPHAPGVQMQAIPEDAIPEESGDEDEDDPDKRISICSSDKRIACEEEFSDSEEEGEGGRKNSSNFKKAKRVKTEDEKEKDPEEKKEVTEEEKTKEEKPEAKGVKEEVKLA

**Q.** Which results are given for `C[C@@H]1CN(c2cnc3c(ccn3Cc3ccc(C(=O)NO)cc3)c2)C[C@H](C)N1CC(C)(C)O` [Compound 865, N-hydroxy-4-((5-((3S,5R)-4-(2-hydroxy-2-methylpropyl)-3,5-dimethylpiperazin-1-yl)-1H-pyrrolo[2,3-b]pyridin-1-yl)methyl)benzamide]?
**A.** IC50 (HDAC1): 680 nM; IC50 (HDAC6 human recombinant): 12 nM

**Q.** Which IC50 (HDAC1) does the source give for `O=C(NO)c1ccc(Cn2ccc3cc(-c4cncnc4)cnc32)cc1` [Compound 124, N-hydroxy-4-((5-(pyrimidin-5-yl)-1H-pyrrolo[2,3-b]pyridin-1-yl)methyl)benzamide] here?
**A.** The IC50 was 540 nM.

**Q.** What about the IC50 (HDAC6 human recombinant) of the same molecule?
**A.** The IC50 was 120 nM.

**Q.** For `COc1ccc(CN2CCN(c3ccnc4c3ccn4Cc3ccc(C(=O)NO)cc3)CC2)cc1` [Compound 705, N-hydroxy-4-((4-(4-(4-methoxybenzyl)piperazin-1-yl)-1H-pyrrolo[2,3-b]pyridin-1-yl)methyl)-benzamide], which IC50 (HDAC1) is on record?
**A.** The IC50 was 1120 nM.

**Q.** And the IC50 (HDAC6 human recombinant)?
**A.** The IC50 was 11 nM.

**Q.** Which results are given for `O=C(NO)c1ccc(Cn2ccc3cc(-c4ccc(O)cc4)cnc32)cc1` [Compound 691, N-hydroxy-4-((5-(4-hydroxyphenyl)-1H-pyrrolo[2,3-b]pyridin-1-yl)methyl)benzamide]?
**A.** IC50 (HDAC1): 2310 nM; IC50 (HDAC6 human recombinant): 5 nM

**Q.** Which results are given for `CN1CCN(c2ccccc2CN2CCC(c3ccnc4c3ccn4Cc3ccc(C(=O)NO)cc3)CC2)CC1` [Compound 984, N-hydroxy-4-((4-(1-(2-(4-methylpiperazin-1-yl)benzyl)piperidin-4-yl)-1H-pyrrolo[2,3-b]pyridin-1-yl)methyl)benzamide]?
**A.** IC50 (HDAC1): 530 nM; IC50 (HDAC6 human recombinant): 7.6 nM

**Q.** How did the IC50 (HDAC1) turn out when `O=C(NO)c1ccc(Cn2ccc3cc(N4CCN(Cc5ccccc5F)CC4)cnc32)cc1` [Compound 861, 4-((5-(4-(2-fluorobenzyl)piperazin-1-yl)-1H-pyrrolo[2,3-b]pyridin-1-yl)methyl)-N-hydroxybenzamide] was run?
**A.** The IC50 was 1880 nM.

**Q.** And the IC50 (HDAC6 human recombinant)?
**A.** Its IC50 is 11.2 nM.

**Q.** How did the IC50 (HDAC1) turn out when `COc1cccc(CN2CCC(c3cnc4c(ccn4Cc4ccc(C(=O)NO)cc4)c3)CC2)c1` [Compound 842, N-hydroxy-4-((5-(1-(3-methoxybenzyl)piperidin-4-yl)-1H-pyrrolo[2,3-b]pyridin-1-yl)methyl)benzamide] was run?
**A.** Its IC50 is 1790 nM.

**Q.** What about the IC50 (HDAC6 human recombinant) of the same molecule?
**A.** The IC50 was 14 nM.

**Q.** `O=C(NO)c1ccc(Cn2ccc3c(N4CCN(Cc5cccnc5)CC4)ccnc32)cc1` [Compound 849, N-hydroxy-4-((4-(4-(pyridin-3-ylmethyl)piperazin-1-yl)-1H-pyrrolo[2,3-b]pyridin-1-yl)methyl)benzamide] was tested. Which IC50 (HDAC1) did it give?
**A.** Its IC50 is 290 nM.

**Q.** What about the IC50 (HDAC6 human recombinant) of the same molecule?
**A.** The IC50 was 11.7 nM.

**Q.** What does the source list for `CCN1CCN(c2ccnc3c2ccn3Cc2ccc(C(=O)NO)cc2)CC1` [Compound 223, 4-((4-(4-ethylpiperazin-1-yl)-1H-pyrrolo[2,3-b]pyridin-1-yl)methyl)-N-hydroxybenzamide]?
**A.** IC50 (HDAC1): 380 nM; IC50 (HDAC6 human recombinant): 7 nM

**Q.** Which results are given for `CC(C)(C(=O)O)N1CCC(c2ccnc3c2ccn3Cc2ccc(C(=O)NO)cc2)CC1` [Compound 1028, 2-(4-(1-(4-(hydroxycarbamoyl)benzyl)-1H-pyrrolo[2,3-b]pyridin-4-yl)piperidin-1-yl)-2-methylpropionic acid]?
**A.** IC50 (HDAC1): 420 nM; IC50 (HDAC6 human recombinant): 1.4 nM

**Q.** Which results are given for `CC(C)(F)CN1CC=C(c2cnc3c(ccn3Cc3ccc(C(=O)NO)cc3)c2)CC1` [Compound 617, 4-((5-(1-(2-fluoro-2-methylpropyl)-1,2,3,6-tetrahydropyridin-4-yl)-1H-pyrrolo[2,3-b]pyridin-1-yl)methyl)-N-hydroxybenzamide]?
**A.** IC50 (HDAC1): 4220 nM; IC50 (HDAC6 human recombinant): 9 nM

**Q.** Which results are given for `O=C(NO)c1ccc(Cn2ccc3c(N4CC5CCC(C4)N5Cc4cccnc4)ccnc32)cc1` [Compound 1019, N-hydroxy-4-((4-(8-(pyridin-3-ylmethyl)-3,8-diazabicyclo[3.2.1]octan-3-yl)-1H-pyrrolo[2,3-b]pyridin-1-yl)methyl)benzamide]?
**A.** IC50 (HDAC1): 260 nM; IC50 (HDAC6 human recombinant): 6.8 nM

**Q.** Which IC50 (HDAC1) does the source give for `O=C(NO)c1ccc(Cn2ccc3cc(C4CCN(Cc5cncnc5)CC4)cnc32)cc1` [Compound 880, N-hydroxy-4-((5-(1-(pyrimidin-5-ylmethyl)piperidin-4-yl)-1H-pyrrolo[2,3-b]pyridin-1-yl)methyl)benzamide] here?
**A.** Its IC50 is 770 nM.

**Q.** And the IC50 (HDAC6 human recombinant)?
**A.** The IC50 was 6 nM.

**Q.** Which IC50 (HDAC1) does the source give for `O=C(NO)c1ccc(Cn2ccc3c(C4CCN(Cc5ccccc5F)CC4)ccnc32)cc1` [Compound 869, 4-((4-(1-(2-fluorobenzyl)piperidin-4-yl)-1H-pyrrolo[2,3-b]pyridin-1-yl)methyl)-N-hydroxybenzamide] here?
**A.** The IC50 was 350 nM.

**Q.** What about the IC50 (HDAC6 human recombinant) of the same molecule?
**A.** Its IC50 is 26.3 nM.

**Q.** `CC(C)(C)OC(=O)N1CC=C(c2cc3c(ccn3Cc3ccc(C(=O)NO)cc3)cn2)CC1` [Compound 783, tert-butyl 4-(1-(4-(hydroxycarbamoyl)benzyl)-1H-pyrrolo[3,2-c]pyridin-6-yl)-5,6-dihydropyridine-1(2H)-carboxylate] was tested. Which IC50 (HDAC1) did it give?
**A.** The IC50 was 450 nM.

**Q.** What about the IC50 (HDAC6 human recombinant) of the same molecule?
**A.** Its IC50 is 12 nM.

**Q.** What does the source list for `CC(C)(F)CN1CC=C(c2ccnc3c2ccn3Cc2ccc(C(=O)NO)cc2)CC1` [Compound 630, 4-((4-(1-(2-fluoro-2-methylpropyl)-1,2,3,6-tetrahydropyridin-4-yl)-1H-pyrrolo[2,3-b]pyridin-1-yl)methyl)-N-hydroxybenzamide]?
**A.** IC50 (HDAC1): 1090 nM; IC50 (HDAC6 human recombinant): 8 nM

**Q.** `O=C(NO)c1ccc(Cn2ccc3cc(C4CCN(Cc5cccc(C(F)(F)F)c5)CC4)cnc32)cc1` [Compound 871, N-hydroxy-4-((5-(1-(3-(trifluoromethyl)benzyl)piperidin-4-yl)-1H-pyrrolo[2,3-b]pyridin-1-yl)methyl)benzamide] was tested. Which IC50 (HDAC1) did it give?
**A.** The IC50 was 3240 nM.

**Q.** What about the IC50 (HDAC6 human recombinant) of the same molecule?
**A.** The IC50 was 92.7 nM.

**Q.** `CCC(F)(CC)CN1CCN(c2ccnc3c2ccn3Cc2ccc(C(=O)NO)cc2)CC1` [Compound 764, 4-((4-(4-(2-ethyl-2-fluorobutyl)piperazin-1-yl)-1H-pyrrolo[2,3-b]pyridin-1-yl)methyl)-N-hydroxybenzamide] was tested. Which IC50 (HDAC1) did it give?
**A.** Its IC50 is 3220 nM.

**Q.** What about the IC50 (HDAC6 human recombinant) of the same molecule?
**A.** The IC50 was 91 nM.

**Q.** `Nc1cccc(-c2ccnc3c2ccn3Cc2ccc(C(=O)NO)cc2)c1` [Compound 722, 4-((4-(3-aminophenyl)-1H-pyrrolo[2,3-b]pyridin-1-yl)methyl)-N-hydroxybenzamide] was tested. Which IC50 (HDAC1) did it give?
**A.** The IC50 was 270 nM.

**Q.** What about the IC50 (HDAC6 human recombinant) of the same molecule?
**A.** Its IC50 is 3 nM.

**Q.** For `CC(C)(C)CCN1CCN(c2cnc3c(ccn3Cc3ccc(C(=O)NO)cc3)c2)CC1` [Compound 862, 4-((5-(4-(3,3-dimethylbutyl)piperazin-1-yl)-1H-pyrrolo[2,3-b]pyridin-1-yl)methyl)-N-hydroxybenzamide], which IC50 (HDAC1) is on record?
**A.** Its IC50 is 1430 nM.

**Q.** And the IC50 (HDAC6 human recombinant)?
**A.** Its IC50 is 12.1 nM.

**Q.** Which IC50 (HDAC1) does the source give for `CN1CCN(Cc2ccc(C(=O)N3CCC(c4cnc5c(ccn5Cc5ccc(C(=O)NO)cc5)c4)CC3)cc2)CC1` [Compound 898, N-hydroxy-4-((5-(1-(4-((4-methylpiperazin-1-yl)methyl)benzoyl)piperidin-4-yl)-1H-pyrrolo[2,3-b]pyridin-1-yl)methyl)benzamide] here?
**A.** The IC50 was 780 nM.

**Q.** And the IC50 (HDAC6 human recombinant)?
**A.** Its IC50 is 6.2 nM.

**Q.** Which results are given for `O=C(NO)c1ccc(Cn2ccc3cc(C4CCN(Cc5ccc(CN6CCOCC6)cc5)CC4)cnc32)cc1` [Compound 882, N-hydroxy-4-((5-(1-(4-(morpholinomethyl)benzyl)piperidin-4-yl)-1H-pyrrolo[2,3-b]pyridin-1-yl)methyl)benzamide]?
**A.** IC50 (HDAC1): 1140 nM; IC50 (HDAC6 human recombinant): 7.5 nM

**Q.** What does the source list for `C[C@@H]1CN(c2cnc3c(ccn3Cc3ccc(C(=O)NO)cc3)c2)C[C@H](C)N1Cc1ncccn1` [Compound 1005, 4-((5-((3S,5R)-3,5-dimethyl-4-(pyrimidin-2-ylmethyl)-1-yl)-1H-pyrrolo[2,3-b]pyridin-1-yl)methyl)-N-hydroxybenzamide]?
**A.** IC50 (HDAC1): 750 nM; IC50 (HDAC6 human recombinant): 5.5 nM

**Q.** Which IC50 (HDAC1) does the source give for `CC(C)(O)CN1CC2(CCN(c3cnc4c(ccn4Cc4ccc(C(=O)NO)cc4)c3)CC2)C1` [Compound 956, N-hydroxy-4-((5-(2-(2-hydroxy-2-methylpropyl)-2,7-diazaspiro[3.5]nanan-7-yl)-1H-pyrrolo[2,3-b]pyridin-1-yl)methyl)benzamide] here?
**A.** Its IC50 is 830 nM.

**Q.** What about the IC50 (HDAC6 human recombinant) of the same molecule?
**A.** The IC50 was 3.7 nM.

Source: patent US9650379B2 (CHONG KUN DANG PHARMACEUTICAL CORP., priority 2013, dated 2017)
